Data as given in paper PMC10141580, “Cyclic Dichalcogenides Extend the Reach of Bioreductive Prodrugs to Harness Thiol/Disulfide Oxidoreductases: Applications to seco-Duocarmycins Targeting the Thioredoxin System” (ACS Central Science, 2023).
Like-named read-outs stand apart in the source and are kept apart here.

Tests used:
A549 cells = test: Resazurin cytotoxicity assay, A549, 72 h; settings: read-out: IC50(nM): A549
Procedure: (§1) We used A549 lung cancer and HeLa cervical cancer cell lines for initial screening of the prodrugs.
Fi gure S9: Cell ular resazurin-based cytotoxi ci ty as s a y.
Dose -response curves were calculated from at least 27 incremental single concentrations over a range
of at least three log units. Individual experiments with annotated experiment numbers are shown for each prodrug

HeLa-HRE cells = test: Resazurin cytotoxicity assay, HeLa-HRE, 48 h; settings: for IC50(HeLa)/IC50(A549): ratio HeLa vs A549
Procedure: as §1
HeLa-HRE cells were treated with prodrugs of the
Dose -response curves were calculated from at least 27 incremental single concentrations over a
range of at least three log units.

[1] = test system: NCI-60 standardized human tumor cell line panel; test: cells; type: cell-based; settings: read-out: GI50
mouse = test: Tolerability for repeated dose administration in vivo (summary); settings: for remarks: repeated dose administration; for well-tolerated dose: weekly or twice-weekly administration
Balb/c mice = test: Moderate repeated dosing tolerability study; type: in vivo
Procedure: Next, a moderate repeated dosing study in Balb/c mice (3 animals per group) tested the importance of solubilizing the prodrugs.
Methods for in vivo animal studies
All in vivo studies were conducted as contract research together with React ionBiology Eur ope G mbH (Freiburg,
Germany), EPO – Experimental Pharmacology & Oncology GmbH (Berlin, Germany); Bient a/ Enam ine Lt d. (Kyiv,
Ukraine) and Leit at – Managing Technologies (Barcelona, Spain), adhering to the respective animal welfare
Mice were kept in individually ventilated cages at constant temperature (22±2 °C, air-conditioned) and humidity (45
– 65%), under optimum hygienic conditions with 10 – 15 air changes per hour. A cycle of 12 h artificial fluorescent
light ning and 12 h darkness was applied , and animal behavior was monitored daily throughout the studies. The
animals received food and water ad libit um.
To evaluate toxicity of selected compounds, dose level selection studies within dose range from 0.1 mg/kg to
10 mg/kg were performed by intravenous administration into Balb /c mice. Each dose for each tested compound
was administered in one mouse.
changes and clinical signs of gross toxicity three tim es per week for 21 consecutive days of post-dosing period.
After the first week of observation without adverse events, two doses for each test compound were selected as
tolerated. These two doses were tested in two additional mice for confirmation of toler ability. Additional animals
consecutive days of post-dosing period. Toxicity of repeated administrations was tested wit h t hr ee repeat ed pr e-
selected doses at a dosing interval of 7 days. Mortality, body weight changes, and clinical signs of gross toxicity
were monitored after each drug administration and three times per week for 21 consecutive days after the first
compound administration. Bleed ing with subsequent hematological tests, clinical chemistry parameters analysis
(ALT, AST, ALP, LDH, creatine kinase, creatinine, urea, cholesterol, and triglycerides), and necropsy with
macroscopic inspection were performed on the terminal day of the repeated dosing-regime.
To test tolerability of selected compounds in vivo, female BALB/c mice were randomized by weight into seven
groups of t hree animals.

[2] = read-out: IC50(nM): HeLa, HeLa, 48 h

## COC(=O)Oc1cc2c(c3ccccc13)[C@H](CCl)CN2C(=O)c1cc2cc(OC)c(OC)c(OC)c2[nH]1 [MC-CBI-TMI]
A549 cells
  IC50: 2.9 nM
HeLa-HRE cells
  IC50(HeLa)/IC50(A549): 1.5
HeLa-HRE cells; [2]
  IC50: 4.3 nM

## CN1CCN(C(=O)CCN(C(=O)Oc2cc3c(c4ccccc24)[C@H](CCl)CN3C(=O)c2cc3cc(OCCCN4CCC4)ccc3[nH]2)[C@H]2CCSSC2)CC1 [P-SS60-CBI-AZI]
[1]; 786-0, AZI sheet
  GI50: 330 nM
[1]; A498, AZI sheet
  GI50: 200 nM
[1]; A549/ATCC, AZI sheet
  GI50: 110 nM
[1]; ACHN, AZI sheet
  GI50: 130 nM
[1]; BT-549, AZI sheet
  GI50: 1000 nM
[1]; CAKI-1, AZI sheet
  GI50: 150 nM
[1]; CCRF-CEM, AZI sheet
  GI50: 270 nM
[1]; COLO 205, AZI sheet
  GI50: 430 nM
[1]; DU-145, AZI sheet
  GI50: 170 nM
[1]; EKVX, AZI sheet
  GI50: 350 nM
[1]; HCC-2998, AZI sheet
  GI50: 150 nM
[1]; HCT-15, AZI sheet
  GI50: 210 nM
[1]; HCT-116, AZI sheet
  GI50: 230 nM
[1]; HL-60(TB), AZI sheet
  GI50: 390 nM
[1]; HOP-62, AZI sheet
  GI50: 150 nM
[1]; HOP-92, AZI sheet
  GI50: 1000 nM
[1]; HT29, AZI sheet
  GI50: 210 nM
[1]; IGROV1, AZI sheet
  GI50: 540 nM
[1]; K-562, AZI sheet
  GI50: 220 nM
[1]; KM12, AZI sheet
  GI50: 310 nM
[1]; LOX IMVI, AZI sheet
  GI50: 86 nM
[1]; M14, AZI sheet
  GI50: 200 nM
[1]; MALME-3M, AZI sheet
  GI50: 230 nM
[1]; MCF7, AZI sheet
  GI50: 49 nM
[1]; MDA-MB-231, AZI sheet
  GI50: 402 nM
[1]; MDA-MB-435, AZI sheet
  GI50: 290 nM
[1]; MDA-MB-468, AZI sheet
  GI50: 150 nM
[1]; MOLT-4, AZI sheet
  GI50: 230 nM
[1]; NCI-H23, AZI sheet
  GI50: 66 nM
[1]; NCI-H226, AZI sheet
  GI50: 150 nM
[1]; NCI-H460, AZI sheet
  GI50: 31 nM
[1]; NCI-H522, AZI sheet
  GI50: 250 nM
[1]; OVCAR-3, AZI sheet
  GI50: 430 nM
[1]; OVCAR-4, AZI sheet
  GI50: 1400 nM
[1]; OVCAR-5, AZI sheet
  GI50: 390 nM
[1]; OVCAR-8, AZI sheet
  GI50: 140 nM
[1]; PC-3, AZI sheet
  GI50: 378 nM
[1]; RPMI-8226, AZI sheet
  GI50: 570 nM
[1]; RXF 393, AZI sheet
  GI50: 190 nM
[1]; SF-268, AZI sheet
  GI50: 280 nM
[1]; SF-295, AZI sheet
  GI50: 110 nM
[1]; SF-539, AZI sheet
  GI50: 330 nM
[1]; SK-MEL-2, AZI sheet
  GI50: 340 nM
[1]; SK-MEL-5, AZI sheet
  GI50: 150 nM
[1]; SK-MEL-28, AZI sheet
  GI50: 210 nM
[1]; SK-OV-3, AZI sheet
  GI50: 310 nM
[1]; SN12C, AZI sheet
  GI50: 530 nM
[1]; SNB-19, AZI sheet
  GI50: 270 nM
[1]; SR, AZI sheet
  GI50: 66 nM
[1]; SW-620, AZI sheet
  GI50: 130 nM
[1]; T-47D, AZI sheet
  GI50: 570 nM
[1]; TK-10, AZI sheet
  GI50: 1600 nM
[1]; U251, AZI sheet
  GI50: 100 nM
[1]; UACC-62, AZI sheet
  GI50: 110 nM
[1]; UACC-257, AZI sheet
  GI50: 380 nM
[1]; UO-31, AZI sheet
  GI50: 190 nM
mouse
  remarks: well tolerated
  well-tolerated dose: 3 mg/kg
A549 cells
  IC50: 100 nM
HeLa-HRE cells
  IC50(HeLa)/IC50(A549): 8.9
HeLa-HRE cells; [2]
  IC50: 890 nM

## CN(CCSSCCN1CCOCC1)C(=O)Oc1cc2c(c3ccccc13)[C@H](CCl)CN2C(=O)c1cc2cc(OCCCN3CCC3)ccc2[nH]1 [SS00M-CBI-AZI]
[1]; 786-0, AZI sheet
  GI50: 32 nM
[1]; A498, AZI sheet
  GI50: 9.1 nM
[1]; A549/ATCC, AZI sheet
  GI50: 4.5 nM
[1]; ACHN, AZI sheet
  GI50: 28 nM
[1]; BT-549, AZI sheet
  GI50: 84 nM
[1]; CAKI-1, AZI sheet
  GI50: 37 nM
[1]; CCRF-CEM, AZI sheet
  GI50: 100 nM
[1]; COLO 205, AZI sheet
  GI50: 320 nM
[1]; DU-145, AZI sheet
  GI50: 12 nM
[1]; EKVX, AZI sheet
  GI50: 42 nM
[1]; HCC-2998, AZI sheet
  GI50: 27 nM
[1]; HCT-15, AZI sheet
  GI50: 57 nM
[1]; HCT-116, AZI sheet
  GI50: 45 nM
[1]; HL-60(TB), AZI sheet
  GI50: 130 nM
[1]; HOP-62, AZI sheet
  GI50: 2.5 nM
[1]; HOP-92, AZI sheet
  GI50: 380 nM
[1]; HT29, AZI sheet
  GI50: 70 nM
[1]; IGROV1, AZI sheet
  GI50: 45 nM
[1]; K-562, AZI sheet
  GI50: 75 nM
[1]; KM12, AZI sheet
  GI50: 31 nM
[1]; LOX IMVI, AZI sheet
  GI50: 8.7 nM
[1]; M14, AZI sheet
  GI50: 10 nM
[1]; MALME-3M, AZI sheet
  GI50: 48 nM
[1]; MCF7, AZI sheet
  GI50: 7.5 nM
[1]; MDA-MB-231, AZI sheet
  GI50: 71.1 nM
[1]; MDA-MB-435, AZI sheet
  GI50: 37 nM
[1]; MDA-MB-468, AZI sheet
  GI50: 40 nM
[1]; MOLT-4, AZI sheet
  GI50: 50 nM
[1]; NCI-H23, AZI sheet
  GI50: 10 nM
[1]; NCI-H226, AZI sheet
  GI50: 9.5 nM
[1]; NCI-H522, AZI sheet
  GI50: 270 nM
[1]; OVCAR-3, AZI sheet
  GI50: 240 nM
[1]; OVCAR-4, AZI sheet
  GI50: 620 nM
[1]; OVCAR-5, AZI sheet
  GI50: 68 nM
[1]; OVCAR-8, AZI sheet
  GI50: 25 nM
[1]; PC-3, AZI sheet
  GI50: 39.6 nM
[1]; RPMI-8226, AZI sheet
  GI50: 470 nM
[1]; RXF 393, AZI sheet
  GI50: 41 nM
[1]; SF-268, AZI sheet
  GI50: 24 nM
[1]; SF-295, AZI sheet
  GI50: 3 nM
[1]; SF-539, AZI sheet
  GI50: 51 nM
[1]; SK-MEL-2, AZI sheet
  GI50: 49 nM
[1]; SK-MEL-5, AZI sheet
  GI50: 6.3 nM
[1]; SK-MEL-28, AZI sheet
  GI50: 29 nM
[1]; SK-OV-3, AZI sheet
  GI50: 8.7 nM
[1]; SN12C, AZI sheet
  GI50: 65 nM
[1]; SNB-19, AZI sheet
  GI50: 6.6 nM
[1]; SR, AZI sheet
  GI50: 7.4 nM
[1]; SW-620, AZI sheet
  GI50: 46 nM
[1]; T-47D, AZI sheet
  GI50: 290 nM
[1]; TK-10, AZI sheet
  GI50: 970 nM
[1]; U251, AZI sheet
  GI50: 3.6 nM
[1]; UACC-62, AZI sheet
  GI50: 6.2 nM
[1]; UACC-257, AZI sheet
  GI50: 92 nM
[1]; UO-31, AZI sheet
  GI50: 44 nM
A549 cells
  IC50: 4.1 nM
HeLa-HRE cells
  IC50(HeLa)/IC50(A549): 1.7
HeLa-HRE cells; [2]
  IC50: 6.9 nM

## COC(=O)Oc1cc2c(c3ccccc13)[C@H](CCl)CN2C(=O)c1cc2cc(OCCCN3CCC3)ccc2[nH]1 [MC-CBI-AZI]
A549 cells
  IC50: 1.6 nM
HeLa-HRE cells
  IC50(HeLa)/IC50(A549): 0.5
HeLa-HRE cells; [2]
  IC50: 0.8 nM

## COc1cc2cc(C(=O)N3C[C@@H](CCl)c4c3cc(OC(=O)N(C)CCSSCCN3CCOCC3)c3ccccc43)[nH]c2c(OC)c1OC [SS00M-CBI-TMI]
[1]; 786-0
  GI50: 16 nM
[1]; A498
  GI50: 270 nM
[1]; A549/ATCC
  GI50: 31 nM
[1]; ACHN
  GI50: 19 nM
[1]; BT-549
  GI50: 15 nM
[1]; CAKI-1
  GI50: 41 nM
[1]; CCRF-CEM
  GI50: 100 nM
[1]; COLO 205
  GI50: 450 nM
[1]; EKVX
  GI50: 82 nM
[1]; HCC-2998
  GI50: 78 nM
[1]; HCT-15
  GI50: 190 nM
[1]; HCT-116
  GI50: 610 nM
[1]; HL-60(TB)
  GI50: 78 nM
[1]; HOP-62
  GI50: 11 nM
[1]; HOP-92
  GI50: 750 nM
[1]; HT29
  GI50: 320 nM
[1]; IGROV1
  GI50: 23 nM
[1]; K-562
  GI50: 330 nM
[1]; KM12
  GI50: 150 nM
[1]; LOX IMVI
  GI50: 42 nM
[1]; M14
  GI50: 31 nM
[1]; MALME-3M
  GI50: 110 nM
[1]; MDA-MB-435
  GI50: 51 nM
[1]; MDA-MB-468
  GI50: 12 nM
[1]; MOLT-4
  GI50: 17 nM
[1]; NCI-H23
  GI50: 9.6 nM
[1]; NCI-H226
  GI50: 29 nM
[1]; NCI-H460
  GI50: 9.5 nM
[1]; NCI-H522
  GI50: 400 nM
[1]; OVCAR-3
  GI50: 690 nM
[1]; OVCAR-4
  GI50: 560 nM
[1]; OVCAR-5
  GI50: 82 nM
[1]; OVCAR-8
  GI50: 43 nM
[1]; PC-3
  GI50: 25 nM
[1]; RPMI-8226
  GI50: 850 nM
[1]; RXF 393
  GI50: 6.6 nM
[1]; SF-268
  GI50: 21 nM
[1]; SF-295
  GI50: 7.4 nM
[1]; SF-539
  GI50: 8.3 nM
[1]; SK-MEL-5
  GI50: 35 nM
[1]; SK-MEL-28
  GI50: 41 nM
[1]; SK-OV-3
  GI50: 16 nM
[1]; SN12C
  GI50: 34 nM
[1]; SNB-19
  GI50: 28 nM
[1]; SR
  GI50: 6.9 nM
[1]; SW-620
  GI50: 570 nM
[1]; T-47D
  GI50: 50 nM
[1]; TK-10
  GI50: 820 nM
[1]; U251
  GI50: 18 nM
[1]; UACC-62
  GI50: 52 nM
[1]; UACC-257
  GI50: 500 nM
A549 cells
  IC50: 35 nM
HeLa-HRE cells
  IC50(HeLa)/IC50(A549): 3.6
HeLa-HRE cells; [2]
  IC50: 125 nM

## O=C(c1cc2cc(OCCCN3CCC3)ccc2[nH]1)N1CC(CCl)c2c1cc(OC(=O)N1CCCC3COCC31)c1ccccc21 (mixture of isomers) [O56-CBI-AZI]
mouse
  well-tolerated dose: 1 mg/kg
A549 cells
  IC50: 410 nM
HeLa-HRE cells; initial screening, A549 and HeLa cell lines
  IC50: ~300 nM
HeLa-HRE cells
  IC50(HeLa)/IC50(A549): 1.1
HeLa-HRE cells; [2]
  IC50: 460 nM

## CN(C(=O)Oc1cc2c(c3ccccc13)[C@H](CCl)CN2C(=O)c1cc2cc(OCCCN3CCC3)ccc2[nH]1)[C@H]1CCS[Se]C1 [SeS60-CBI-AZI]
Balb/c mice; once weekly
  outcome of repeated dosing at 3 mg/kg: significant loss of body weight
Balb/c mice; treated twice a week
  outcome of repeated dosing at 1 mg/kg: still caused adverse effects
mouse
  remarks: adverse effects
A549 cells; Homo sapiens
  IC50: 60 nM
HeLa-HRE cells; Homo sapiens, HeLa, 48 h, read-out: IC50(nM): HeLa
  IC50: 49 nM
HeLa-HRE cells
  IC50(HeLa)/IC50(A549): 0.8
